Measured values reported in patent US20210253575A1, “PYRROLIDINE AMINE COMPOUNDS FOR THE TREATMENT OF AUTOIMMUNE DISEASE” (Hoffmann-La Roche Inc., priority 2018, published 2021).

Biological target: T1, human TLR8 (Homo sapiens, UniProt Q9NR97)
T1 sequence (Q9NR97 27-1041): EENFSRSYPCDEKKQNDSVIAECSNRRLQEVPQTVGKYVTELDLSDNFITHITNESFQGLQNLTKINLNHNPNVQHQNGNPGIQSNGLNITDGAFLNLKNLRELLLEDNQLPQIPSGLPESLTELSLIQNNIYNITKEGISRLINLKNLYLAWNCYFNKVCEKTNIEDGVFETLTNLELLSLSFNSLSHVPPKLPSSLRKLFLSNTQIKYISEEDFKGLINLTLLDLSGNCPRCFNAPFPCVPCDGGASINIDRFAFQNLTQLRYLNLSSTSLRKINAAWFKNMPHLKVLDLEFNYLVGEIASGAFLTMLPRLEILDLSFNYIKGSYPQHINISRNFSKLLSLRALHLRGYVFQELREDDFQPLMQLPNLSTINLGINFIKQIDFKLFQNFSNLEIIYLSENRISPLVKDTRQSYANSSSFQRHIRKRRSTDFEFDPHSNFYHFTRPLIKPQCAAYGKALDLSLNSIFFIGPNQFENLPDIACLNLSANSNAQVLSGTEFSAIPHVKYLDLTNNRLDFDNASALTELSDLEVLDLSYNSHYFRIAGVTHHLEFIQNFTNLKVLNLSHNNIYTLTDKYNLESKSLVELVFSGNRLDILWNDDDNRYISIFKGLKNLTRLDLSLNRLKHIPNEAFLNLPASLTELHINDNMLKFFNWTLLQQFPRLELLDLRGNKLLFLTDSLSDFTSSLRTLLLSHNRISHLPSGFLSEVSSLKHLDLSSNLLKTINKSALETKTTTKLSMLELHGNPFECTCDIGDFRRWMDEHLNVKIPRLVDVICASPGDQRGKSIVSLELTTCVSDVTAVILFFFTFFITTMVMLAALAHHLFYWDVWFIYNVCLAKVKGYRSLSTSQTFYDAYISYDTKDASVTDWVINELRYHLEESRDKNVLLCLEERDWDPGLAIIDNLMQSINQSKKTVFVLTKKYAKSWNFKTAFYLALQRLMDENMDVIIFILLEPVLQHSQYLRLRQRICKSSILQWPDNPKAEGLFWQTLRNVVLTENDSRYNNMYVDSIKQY
Test: HEK293-Blue-hTLR-8 cells assay (SEAP reporter, R848 stimulation)
Assay type: cell-based
Settings: HEK293-Blue-hTLR8 cells, R848 ligand, 20 hrs incubation
Summary of the method: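 Antagonism was measured in HEK293-Blue-hTLR8 cells with an NF-κB/AP-1-driven SEAP reporter. Cells were stimulated with R848 (10 μL of 60 uM stock) alongside compound (1% DMSO) for 20 hrs at 37° C. Supernatant SEAP was read with QUANTI-Blue after 2 hrs, absorbance at 620-655 nm.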

For `N#Cc1ccc(N2C[C@H](CN3CC4CNCC4C3)[C@@H](C(F)(F)F)C2)c2nccnc12` (stereo partly drawn) [Example 76, 8-[(3S,4R)-3-(2,3,3a,4,6,6a-hexahydro-1H-pyrrolo[3,4-c]pyrrol-5-ylmethyl)-4-(trifluoromethyl)pyrrolidin-1-yl]quinoxaline-5-carbonitrile], which IC50 is on record?
Its IC50 is 41 nM.

`N#Cc1ccc(N2C[C@H](CN3CC4CCC3CN4)[C@@H](C(F)(F)F)C2)c2nccnc12` (stereo partly drawn) [Example 77, 8-[(3S,4R)-3-(2,5-diazabicyclo[2.2.2]octan-2-ylmethyl)-4-(trifluoromethyl)pyrrolidin-1-yl]quinoxaline-5-carbonitrile] was tested. Which IC50 did it give?
Its IC50 is 26 nM.

For `N#Cc1ccc(N2C[C@H](CN3CCCC(F)(CN)C3)[C@@H](C(F)(F)F)C2)c2nccnc12` (stereo partly drawn) [Example 78, 8-[(3S,4R)-3-[[3-(aminomethyl)-3-fluoro-1-piperidyl]methyl]-4-(trifluoromethyl)pyrrolidin-1-yl]quinoxaline-5-carbonitrile], which IC50 is on record?
Its IC50 is 30 nM.

For `N#Cc1ccc(N2C[C@H](CN3CCC(CCN)CC3)[C@@H](C(F)(F)F)C2)c2nccnc12` [Example 79, 8-[(3S,4R)-3-[[4-(2-aminoethyl)-1-piperidyl]methyl]-4-(trifluoromethyl)pyrrolidin-1-yl]quinoxaline-5-carbonitrile], which IC50 is on record?
The IC50 was 102 nM.

Which IC50 does the source give for `CN(C)C1CCN(C[C@H]2CN(c3ccc(C#N)c4nccnc34)C[C@@H]2C(F)(F)F)CC1` [Example 80, 8-[(3S,4R)-3-[[4-(dimethylamino)-1-piperidyl]methyl]-4-(trifluoromethyl)pyrrolidin-1-yl]quinoxaline-5-carbonitrile] here?
Its IC50 is 32 nM.

How did the IC50 turn out when `CNCC1CCN(C[C@H]2CN(c3ccc(C#N)c4nccnc34)C[C@@H]2C(F)(F)F)CC1` [Example 81, 8-[(3S,4R)-3-[[4-(methylaminomethyl)-1-piperidyl]methyl]-4-(trifluoromethyl)pyrrolidin-1-yl]quinoxaline-5-carbonitrile] was run?
Its IC50 is 25 nM.

With `CN(C)C[C@@H]1CCN(C[C@H]2CN(c3ccc(C#N)c4nccnc34)C[C@@H]2C(F)(F)F)C1` [Example 82, 8-[(3S,4R)-3-[[(3S)-3-[(dimethylamino)methyl]pyrrolidin-1-yl]methyl]-4-(trifluoromethyl)pyrrolidin-1-yl]quinoxaline-5-carbonitrile] as the compound, how does the IC50 read?
The IC50 was 108 nM.
